Data published in ChEMBL document CHEMBL5705903, “A DNA Hypomethylation Signature Predicts Antitumor Activity of LSD1 Inhibitors in SCLC” (Cancer Cell, 2015).

Key:
[1] = Cmax in mouse at 5.5 mg/kg, ip by HPLC/MS/MS analysis; type: ADME, organism-based; conditions: in vivo
[2] = Effect on cleaved PARP level in human NCI-H1694 cells assessed as fold change at 100 nM measured after 14 days by Western blot analysis (reference value: 1.00); type: functional; conditions: time 14 day
NCI-H526 [3] = test: In vivo inhibition of LSD1 in human NCI-H526 cells xenografted in nude mouse assessed as change in LIX1L gene expression administrated daily for 5 days by qRT-PCR analysis; type: functional, organism-based; conditions: dose 0.02-135 mg/kg, time 5.0 day
[4] = Toxicity in rat assessed as suppression of erythroid maturation in bone marrow measured for 28 days; conditions: in vivo, 672 h, time 28 day
SHP77 = test: Antitumor activity against human SHP77 cells xenografted in nude mouse assessed as tumor growth inhibition at […] mg/kg, po administered daily measured twice weekly relative to control; type: functional; conditions: read-out: TGI
[5] = Effect on cleaved PARP level in human NCI-H510 cells assessed as relative expression at 10 nM measured after 7 days by Western blot analysis (reference value: 0.24); type: functional, NCI-H510A; conditions: time 7 day
NCI-H526 [6] = test: In vivo inhibition of LSD1 in human NCI-H526 cells xenografted in nude mouse assessed as change in UMODL1 gene expression administrated daily for 5 days by qRT-PCR analysis; type: functional, organism-based; conditions: dose 0.02-135 mg/kg, time 5.0 day
NCI-H526 [7] = test: In vivo inhibition of LSD1 in human NCI-H526 cells xenografted in nude mouse assessed as change in TOX3 gene expression measured after 24 hrs post single administration by qRT-PCR analysis; type: functional, organism-based; conditions: dose 0.06-135 mg/kg
[8] = Effect on cleaved PARP level in human NCI-H69 cells assessed as fold change at 10 nM measured after 10 days by Western blot analysis (reference value: 1.00); type: functional; conditions: time 10 day
[9] = target: Lysine-specific histone demethylase 1A (Homo sapiens, UniProt O60341); conditions: NCI-H526, dose 1-10000 nM, time 1-7 day
Description: Inhibition of LSD1 in human NCI-H526 cells assessed as change in IGFBP2 gene expression treated for 1 to 7 days by qRT-PCR analysis

[10] = Toxicity in dog assessed as suppression of platelet in bone marrow measured for 28 days; type: cell-based, Canis lupus familiaris; conditions: 672 h, time 28 day
[11] = Effect on cleaved PARP level in human NCI-H510 cells assessed as fold change at 10 nM measured after 7 days by Western blot analysis (reference value: 1.00); type: functional, NCI-H510A; conditions: time 7 day
[12] = Effect on cleaved PARP level in human COLO-668 cells assessed as fold change at 10 nM measured after 7 days by Western blot analysis (reference value: 1.00); type: functional; conditions: time 7 day
[13] = Tmax in mouse blood at 5 mg/kg, po by HPLC/MS/MS analysis; type: ADME, organism-based
NCI-H526 [14] = test: In vivo inhibition of LSD1 in human NCI-H526 cells xenografted in nude mouse assessed as change in ANXA6 gene expression administrated daily for 5 days by qRT-PCR analysis; type: functional, organism-based; conditions: dose 0.02-135 mg/kg, time 5.0 day
[15] = Oral bioavailability in mouse at 5 mg/kg by HPLC/MS/MS analysis; type: ADME, organism-based; conditions: in vivo
[16] = Effect on cleaved PARP level in human NCI-H510 cells assessed as fold change at 100 nM measured after 10 days by Western blot analysis (reference value: 1.00); type: functional, NCI-H510A; conditions: time 10 day
[17] = Effect on cleaved PARP level in human NCI-H510 cells assessed as relative expression at 1000 nM measured after 14 days by Western blot analysis (reference value: 0.01); type: functional, NCI-H510A; conditions: time 14 day
[18] = Effect on cleaved PARP level in human NCI-H69 cells assessed as relative expression at 1000 nM measured after 10 days by Western blot analysis (reference value: 0.03); type: functional; conditions: time 10 day
NCI-H69 = test: Antitumor activity against human NCI-H69 cells xenografted in nude mouse assessed as tumor growth inhibition at 1.5 mg/kg, po administered daily measured twice weekly relative to control; type: functional; conditions: read-out: TGI
[19] = Effect on cleaved PARP level in human NCI-H510 cells assessed as fold change at 10 nM measured after 10 days by Western blot analysis (reference value: 1.00); type: functional, NCI-H510A; conditions: time 10 day
[20] = Effect on cleaved PARP level in human COLO-668 cells assessed as relative expression at 100 nM measured after 14 days by Western blot analysis (reference value: 3.50); type: functional; conditions: time 14 day
[21] = Effect on cleaved PARP level in human NCI-H1694 cells assessed as relative expression at 100 nM measured after 10 days by Western blot analysis (reference value: 0.31); type: functional; conditions: time 10 day

c1ccc([C@@H]2C[C@H]2NC2CCNCC2)cc1
Cmax [1]: 466 ng/mL

O=C(O)c1ccc(CN2CCC(CN[C@@H]3C[C@H]3c3ccccc3)CC2)cc1 [GSK2879552]
fold change (FC) [2]: 0.89 | inhibition (NCI-H526 [3]): Dose-Dependent Effect | Activity [4]: Toxic | inhibition in vivo at 1.25 mg/kg (SHP77): 17% | Activity [5]: 0.3 | inhibition (NCI-H526 [6]): Dose-Dependent Effect | inhibition (NCI-H526 [7]): Dose-Dependent Effect | fold change (FC) [8]: 1.74 | inhibition [9]: Dose-Dependent Effect | Activity [10]: Toxic | fold change (FC) [11]: 1.27 | fold change (FC) [12]: 0.74 | Tmax [13]: 15 min | inhibition (NCI-H526 [14]): Dose-Dependent Effect | bioavailability [15]: 59.2% | fold change (FC) [16]: 9.72 | Activity [17]: 0.47 | Activity [18]: 0.09 | inhibition in vivo at 1.5 mg/kg (NCI-H69): 49% | fold change (FC) [19]: 4.22 | Activity [20]: 0.89 | Activity [21]: 0.23
